# Earlier results, collected in patent US9751843B2, “Substituted uracils and use thereof” (Bayer Pharma Aktiengesellschaft, priority 2013, dated 2017).
# System: chymase
# [1] = hamsters, myocardial infarction model
smiles,measurement,setting,value
CCOc1ccccc1CC1C(=O)N(C(=O)NC(c2ccc(C)cc2)c2ccc(C)cc2)C1Oc1ccc(C(=O)O)cc1 (stereo not drawn) [BCEAB],chymase activity,"hamster, in vivo",reduced
same,hemodynamics,[1],improved
same,mortality,[1],reduced
